Patent US7323485B2, “4-(substituted cycloalkylmethyl) imidazole-2-thiones, 4-(substituted cycloalkenylmethyl) imidazole-2-thiones, 4-(substituted cycloalkylmethyl) imidazol-2-ones and 4-(substituted cycloalkenylmethyl) imidazol-2-ones and related compounds” (Allergan, Inc., priority 2002, dated 2008)

Tests used:
[1] = biological target: T1, alpha2B adrenergic receptors (Homo sapiens, UniProt P18089); assay: Receptor Selection and Amplification Technology (RSAT) assay, alpha2B; assay type: cell-based; details: for EC50: NA = not active at concentrations less than 10 micromolar, read-out: Alpha 2B EC50; for Alpha 2B intrinsic activity: fraction of maximal effect of standard full agonist brimonidine (UK14304)
T1 construct: expressed in transfected cells; host or cells: NIH-3T3
T1 sequence (P18089 1-450): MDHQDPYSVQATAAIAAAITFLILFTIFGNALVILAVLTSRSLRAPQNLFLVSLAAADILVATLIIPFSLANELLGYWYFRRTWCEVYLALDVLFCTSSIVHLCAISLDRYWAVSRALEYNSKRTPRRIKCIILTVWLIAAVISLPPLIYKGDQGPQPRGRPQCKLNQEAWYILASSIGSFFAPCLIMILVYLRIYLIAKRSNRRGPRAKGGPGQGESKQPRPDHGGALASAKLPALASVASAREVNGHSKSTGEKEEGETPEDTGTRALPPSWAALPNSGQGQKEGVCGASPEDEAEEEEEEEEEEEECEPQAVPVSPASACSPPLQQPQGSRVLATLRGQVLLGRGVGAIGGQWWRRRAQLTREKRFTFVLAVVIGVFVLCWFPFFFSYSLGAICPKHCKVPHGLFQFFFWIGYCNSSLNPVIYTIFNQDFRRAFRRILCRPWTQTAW
From the text: (§1) The imidazole-2-thione compounds of the invention are agonists of alpha2 adrenergic receptors, particularly they tend to be specific or selective agonists of alpha2B and/or to a lesser extent alpha2C adrenergic receptors, in preference over alpha2A adrenergic receptors. […] Al., 1995, Pharmacol. Toxicol. 76, pp. 308-311 (incorporated herein by reference) and is also described below. Another reference pertinent to this assay is Conklin et al. (1993) Nature 363:274-6, also incorporated herein by reference.
(§2) Receptor Selection and Amplification Technology (RSAT) Assay
(§3) The RSAT assay measures a receptor-mediated loss of contact inhibition that results in selective proliferation of receptor-containing cells in a mixed population of confluent cells. The increase in cell number is assessed with an appropriate transfected marker gene such as β-galactosidase, the activity of which can be easily measured in a 96-well format. Receptors that activate the G protein, Gq, elicit this response. Alpha2 receptors, which normally couple to Gi, activate the RSAT response when coexpressed with a hybrid Gq protein that has a Gi receptor recognition domain, called Gq/i5.
(§4) NIH-3T3 cells are plated at a density of 2×10^6 cells in 15 cm dishes and maintained in Dulbecco's modified Eagle's medium supplemented with 10% calf serum. One day later, cells are cotransfected by calcium phosphate precipitation with mammalian expression plasmids encoding p-SV-β-galactosidase (5-10 μg), receptor (1-2 μg) and G protein (1-2 μg). 40 μg salmon sperm DNA may also be included in the transfection mixture. Fresh media is added on the following day and 1-2 days later, cells are harvested and frozen in 50 assay aliquots. Cells are thawed and 100 μl added to 100 μl aliquots of various concentrations of drugs in triplicate in 96-well dishes. Incubations continue 72-96 hr at 37 EC. After washing with phosphate-buffered saline, β-galactosidase enzyme activity is determined by adding 200 μl of the chromogenic substrate (consisting of 3.5 mM o-nitrophenyl-β-D-galactopyranoside and 0.5% nonidet P-40 in phosphate buffered saline), incubating overnight at 30 EC and measuring optical density at 420 nm. The absorbance is a measure of enzyme activity, which depends on cell number and reflects a receptor-mediated cell proliferation. The EC50 and maximal effect of each drug at each alpha2 receptor is determined. The efficacy or intrinsic activity is calculated as a ratio of the maximal effect of the drug to the maximal effect of a standard full agonist for each receptor subtype. Brimonidine, also called UK14304, the chemical structure of which is shown below, is used as the standard agonist for the alpha2A, alpha2B and alpha2C receptors.
(§5) The results of the RSAT assay with several exemplary compounds of the invention are disclosed in Table 1 above together with the chemical formulas of these examplary compounds. […] NA stands for “not active” at concentrations less than 10 micromolar. As is known EC50 is the concentration at which half of a given compound's maximal activity is observed.

[2] = biological target: T2, alpha2C adrenergic receptors (Homo sapiens, UniProt P18825); assay: Receptor Selection and Amplification Technology (RSAT) assay, alpha2C; assay type: cell-based; details: for EC50: NA = not active at concentrations less than 10 micromolar, read-out: Alpha 2C EC50; for Alpha 2C intrinsic activity: fraction of maximal effect of standard full agonist brimonidine (UK14304)
T2 construct: expressed in transfected cells; host or cells: NIH-3T3
T2 sequence (P18825 1-462): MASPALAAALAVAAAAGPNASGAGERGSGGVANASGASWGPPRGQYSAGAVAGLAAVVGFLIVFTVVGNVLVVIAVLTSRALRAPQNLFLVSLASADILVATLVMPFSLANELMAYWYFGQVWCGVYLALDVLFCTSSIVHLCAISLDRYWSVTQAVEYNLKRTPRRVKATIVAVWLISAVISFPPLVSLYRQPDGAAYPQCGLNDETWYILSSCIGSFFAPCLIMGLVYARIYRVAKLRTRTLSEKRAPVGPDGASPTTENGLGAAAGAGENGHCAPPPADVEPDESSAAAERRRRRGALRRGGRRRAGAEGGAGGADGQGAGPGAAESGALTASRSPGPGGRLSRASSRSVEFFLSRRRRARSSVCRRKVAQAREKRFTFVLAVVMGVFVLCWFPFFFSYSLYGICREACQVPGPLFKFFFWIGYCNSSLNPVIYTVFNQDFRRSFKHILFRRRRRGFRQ
From the text: as §1, §2, §3, §4, §5

EC50 [1]	Alpha 2B intrinsic activity [1]	EC50 [2]	Alpha 2C intrinsic activity [2]	SMILES
81 nM	0.81	–	–	CC1=CC(Cc2c[nH]c(=S)[nH]2)CC1 (centres unmarked)
86 nM	0.78	–	–	S=c1[nH]cc(CC2CCC3=C(CCCC3)C2)[nH]1 (centres unmarked)
106 nM	0.97	–	–	O=C1c2ccsc2CCC1Cc1c[nH]c(=S)[nH]1 (centres unmarked)
815 nM	0.83	–	–	O=C1C2=C(CCCC2)CCC1Cc1c[nH]c(=S)[nH]1 (centres unmarked)
18 nM	1.0	–	–	O=C1c2ccccc2CCC1Cc1c[nH]c(=S)[nH]1 (centres unmarked)
1150 nM	0.37	–	–	S=c1[nH]cc(CC2CCc3cc(Cl)ccc32)[nH]1 (centres unmarked)
6 nM	1.08	–	–	CCC1=C(C)CCC(Cc2c[nH]c(=S)[nH]2)C1 (centres unmarked)
17 nM	0.65	–	–	S=c1[nH]cc(CC2CCc3ccccc3C2)[nH]1 (centres unmarked)
850 nM	0.71	–	–	O=C1c2ccccc2CC1Cc1c[nH]c(=S)[nH]1 (centres unmarked)
25 nM	0.61	–	–	CC1=C(C)CC(Cc2c[nH]c(=S)[nH]2)CC1 (centres unmarked)
1010 nM	0.48	–	–	O=C1c2ccc(O)cc2CCC1Cc1c[nH]c(=S)[nH]1 (centres unmarked)
451 nM	0.68	–	–	CCC1=CCC(Cc2c[nH]c(=S)[nH]2)CC1 (centres unmarked)
265 nM	0.60	–	–	C#CC1=CCC(Cc2c[nH]c(=S)[nH]2)CC1 (centres unmarked)
61 nM	0.72	–	–	CC1=CCC(Cc2c[nH]c(=S)[nH]2)CC1 (centres unmarked)
41 nM	0.83	–	–	O=C1c2ccccc2CC[C@H]1Cc1c[nH]c(=S)[nH]1
92 nM	0.79	–	–	O=C1c2ccccc2CC[C@@H]1Cc1c[nH]c(=S)[nH]1
17 nM	0.82	–	–	S=c1[nH]cc(C2CCc3ccccc3CC2)[nH]1
286 nM	1.16	–	–	S=c1[nH]cc(CC2CCSc3ccccc32)[nH]1 (centres unmarked)
755 nM	0.98	2260 nM	0.88	O=C1C2=C(CCC1Cc1c[nH]c(=S)[nH]1)NCCC2 (centres unmarked)
720 nM	0.6	–	–	O=C1c2cccnc2CCC1Cc1c[nH]c(=S)[nH]1 (centres unmarked)
395 nM	0.41	–	–	S=c1[nH]cc(C[C@H]2CCc3ccccc3C2)[nH]1
13.7 nM	0.93	–	–	S=c1[nH]cc(C[C@@H]2CCc3ccccc3C2)[nH]1
60 nM	0.73	–	–	S=c1[nH]cc(C[C@@H]2CCC3=C(CCCC3)C2)[nH]1
300 nM	0.76	–	–	O=C1c2ccc(F)cc2CCC1Cc1c[nH]c(=S)[nH]1 (centres unmarked)
115 nM	0.99	–	–	O=C1c2c(Cl)cccc2CCC1Cc1c[nH]c(=S)[nH]1 (centres unmarked)
110 nM	0.65	–	–	S=c1[nH]cc(CC2Cc3ccccc3C2)[nH]1
6 nM	0.98	–	–	S=c1[nH]cc(C2Cc3ccccc3C2)[nH]1
34 nM	1.03	423 nM	0.52	S=c1[nH]cc(C2CCc3ccccc3C2)[nH]1 (centres unmarked)

EC50 [1]	Alpha 2B intrinsic activity [1]	EC50 [2]	Alpha 2C intrinsic activity [2]	SMILES
30 nM	0.75	–	–	Fc1ccc2c(c1)CC(c1c[nH]c(=S)[nH]1)C2 (centres unmarked)
3 nM	0.99	13 nM	0.62	Cc1cccc2c1CC(c1c[nH]c(=S)[nH]1)C2 (centres unmarked)
27 nM	1.12	374 nM	0.45	Cc1ccc2c(c1)CC(c1c[nH]c(=S)[nH]1)C2 (centres unmarked)
28 nM	0.87	321 nM	0.38	S=c1[nH]cc(C2Cc3ccc(Br)cc3C2)[nH]1 (centres unmarked)
5 nM	1.07	106 nM	0.87	S=c1[nH]cc(C2Cc3cccc(Br)c3C2)[nH]1 (centres unmarked)
57.5 nM	0.85	–	–	S=c1[nH]cc(C2Cc3ccc(Cl)cc3C2)[nH]1 (centres unmarked)
5 nM	1.03	–	–	C[C@@H]1c2ccccc2C[C@H]1c1c[nH]c(=S)[nH]1
34.5 nM	0.93	–	–	Fc1cccc2c1CCC2Cc1c[nH]c(=S)[nH]1 (centres unmarked)
834 nM	0.54	–	–	Fc1ccc2c(c1F)CCC2Cc1c[nH]c(=S)[nH]1 (centres unmarked)
105 nM	0.64	–	–	Cc1ccc(C)c2c1CCC2Cc1c[nH]c(=S)[nH]1 (centres unmarked)
74 nM	0.78	–	–	S=c1[nH]cc(CC2CCCc3cccc(Cl)c32)[nH]1 (centres unmarked)
1590 nM	0.74	–	–	S=c1[nH]cc(CC2CCc3ncccc3C2)[nH]1 (centres unmarked)
6.5 nM	0.81	–	–	Fc1cc(F)c2c(c1)CC(c1c[nH]c(=S)[nH]1)C2 (centres unmarked)
22 nM	1.02	–	–	COc1cc(F)c2c(c1)CC(c1c[nH]c(=S)[nH]1)C2 (centres unmarked)
31.3 nM	0.91	–	–	S=c1[nH]cc(CC2CCc3c(Cl)cccc32)[nH]1 (centres unmarked)
160 nM	0.94	–	–	N#C/C=C1\c2ccccc2CCC1Cc1c[nH]c(=S)[nH]1 (centres unmarked)
990 nM	0.5	–	–	N#C/C=C1/c2ccccc2CCC1Cc1c[nH]c(=S)[nH]1 (centres unmarked)
469 nM	0.87	–	–	CC1=CCC(Cc2c[nH]c(=S)[nH]2)OC1 (centres unmarked)
–	–	214 nM	0.68	S=c1[nH]cc(CC2CCC=C2c2ccccc2)[nH]1 (centres unmarked)
–	–	191 nM	0.45	Fc1cccc(C2=CCCC2Cc2c[nH]c(=S)[nH]2)c1 (centres unmarked)
–	–	715 nM	0.61	Fc1ccc(C2=CCC[C@H]2Cc2c[nH]c(=S)[nH]2)cc1
1470 nM	0.66	–	–	Fc1cccc(C2=CCC[C@@H]2Cc2c[nH]c(=S)[nH]2)c1
–	–	241 nM	0.66	Fc1cc(F)cc(C2=CCCC2Cc2c[nH]c(=S)[nH]2)c1 (centres unmarked)
–	–	994 nM	0.53	Fc1ccccc1C1=CCCC1Cc1c[nH]c(=S)[nH]1 (centres unmarked)
–	–	430 nM	0.38	Fc1ccc(F)c(C2=CCCC2Cc2c[nH]c(=S)[nH]2)c1 (centres unmarked)
269 nM	0.79	–	–	CC(C)C1=C(c2ccc(F)cc2)C(Cc2c[nH]c(=S)[nH]2)CC1 (centres unmarked)
14 nM	0.74	–	–	S=c1[nH]cc(CC2CCc3sccc3C2)[nH]1 (centres unmarked) [drawing 22]
